{
  "source": "paper PMC11788587",
  "about": "“Validating Low‐Dose Iohexol as a Marker for Glomerular Filtration Rate by In Vitro and In Vivo Studies” (Clinical and Translational Science, 2025)",
  "key": {"hMATE2K": {"molecular_target": "T1, hMATE2K (Homo sapiens, UniProt Q86VL8)", "T1 construct": "expressed in transfected cells; host or cells: HEK-293 (293) cells, pEBTetD plasmid, doxycycline-induced", "T1 sequence (Q86VL8 1-566 isoform Q86VL8-3)": "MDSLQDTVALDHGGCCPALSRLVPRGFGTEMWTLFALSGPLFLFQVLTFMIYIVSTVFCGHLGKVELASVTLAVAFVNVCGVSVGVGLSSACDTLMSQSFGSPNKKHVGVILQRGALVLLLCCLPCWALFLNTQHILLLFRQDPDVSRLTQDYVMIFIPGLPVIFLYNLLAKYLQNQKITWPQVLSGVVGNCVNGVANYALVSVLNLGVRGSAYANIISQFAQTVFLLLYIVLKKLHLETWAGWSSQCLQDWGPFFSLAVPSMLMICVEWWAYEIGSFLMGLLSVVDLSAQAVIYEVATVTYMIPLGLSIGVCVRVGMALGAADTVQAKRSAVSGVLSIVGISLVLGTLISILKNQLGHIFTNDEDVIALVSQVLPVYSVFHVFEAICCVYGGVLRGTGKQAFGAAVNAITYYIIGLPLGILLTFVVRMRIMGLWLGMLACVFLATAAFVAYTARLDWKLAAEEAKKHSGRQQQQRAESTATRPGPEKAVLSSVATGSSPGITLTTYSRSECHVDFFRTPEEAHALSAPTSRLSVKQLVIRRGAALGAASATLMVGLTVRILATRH", "test": "Inhibition of hMATE2K-mediated MPP+ uptake, stably transfected 293 cells", "type": "cell-based", "conditions": "substrate 3 µM MPP+, median (95% CI)", "from_the_text": "(§1) We characterized the inhibitory potential of iohexol on major drug transporters recommended by regulatory agencies, which were previously assessed in a clinical transporter phenotyping cocktail study. These transporters include hOAT1, hOAT3, hOCT1, hOCT2, hMATE1, hMATE2K, human organic anion transporter polypeptides (hOATP)1B1, hOATP1B3, and human multidrug resistance protein (hMDR)1. Additionally, we investigated whether iohexol is a substrate for any of the renal transporters among these, including hOAT1/3, hOCT1/2, and hMATE1/2K. Cell‐based uptake assays were used to assess the activities of hOAT1/3, hOCT1/2, hMATE1/2K, and hOATP1B1/1B3. Inside‐out membrane vesicle uptake assays were used to evaluate the activity of hMDR1.\nTo determine the maximal inhibitory potential of iohexol, intracellular accumulation of a standard substrate was measured with and without the clinically relevant highest concentrations of iohexol. Control inhibitors were tested in each experiment.\nIn all subsequent in vitro studies, control experiments were conducted to validate the results. These included positive controls for substrates and inhibitors, as well as cells either without transporter expression or transfected with an empty vector, and control vesicles. Each condition, including cells or vesicles with the transporter and their respective controls, was analyzed in at least three replicates. For detailed information on materials, methods, and data analysis techniques used, refer to the Supporting Information. […]\n(§2) R version 4.2.1 (R Foundation for Statistical Computing, Vienna, Austria) was used for statistical evaluations and data visualization. The data analysis approach for the in vitro study was detailed by Hsin CH et al..^1 In brief, for transport assays, the initial uptake rate was calculated by normalizing the substrate concentration to both the protein concentration and the incubation time for each dish or well. The transporter-mediated uptake rate (net uptake) was determined by performing an element-wise subtraction of uptake rates from different conditions. […]"}, "hOAT1": {"molecular_target": "T2, hOAT1 (Homo sapiens, UniProt Q4U2R8)", "T2 construct": "expressed in transfected cells; host or cells: HEK-293 (293) cells, pEBTetD plasmid, doxycycline-induced", "T2 sequence (Q4U2R8 1-563)": "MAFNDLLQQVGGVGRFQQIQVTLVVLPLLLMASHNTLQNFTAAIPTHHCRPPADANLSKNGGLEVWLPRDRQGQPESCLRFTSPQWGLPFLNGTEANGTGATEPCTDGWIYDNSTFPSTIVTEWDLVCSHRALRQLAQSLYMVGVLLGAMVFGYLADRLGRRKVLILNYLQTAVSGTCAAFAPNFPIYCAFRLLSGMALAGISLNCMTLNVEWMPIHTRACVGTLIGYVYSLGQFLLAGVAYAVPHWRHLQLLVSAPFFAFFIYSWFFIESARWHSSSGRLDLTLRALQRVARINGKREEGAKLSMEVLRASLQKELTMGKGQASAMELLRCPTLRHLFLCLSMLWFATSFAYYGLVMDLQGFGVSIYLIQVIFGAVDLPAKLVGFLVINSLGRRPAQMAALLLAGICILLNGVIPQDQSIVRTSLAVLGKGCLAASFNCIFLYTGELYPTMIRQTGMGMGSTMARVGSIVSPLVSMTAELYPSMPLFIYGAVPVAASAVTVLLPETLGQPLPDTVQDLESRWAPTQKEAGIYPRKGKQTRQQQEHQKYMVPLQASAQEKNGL", "test": "Substrate assessment: iohexol uptake in 293 cells expressing hOAT1 vs control", "type": "in vitro ADME", "conditions": "10 μM iohexol, median (95% CI)", "from_the_text": "as §1\nFor substrate assessments, iohexol was incubated with stably transfected HEK‐293 cells expressing one of the following transporters: hOAT1, hOAT3, hOCT1, hOCT2, hMATE1, or hMATE2K, as well as with control cells lacking transporter expression. Stably transfected cell lines containing pEBTetD plasmids with wild‐type human transporter cDNAs were generated as previously described. Transporter expression was induced by adding 1 μg/mL doxycycline to the growth medium for at least 20 h. Iohexol would be considered a substrate for these transporters if: (1) the ratio of iohexol uptake in cells expressing the transporter to that in control cells was ≥ 2, and (2) a known inhibitor of the transporter reduced iohexol uptake to ≤ 50% at concentrations ≥ 10 times its inhibition constant or half‐maximal inhibitory concentration.\nUptake assays were performed using stably transfected 293 cells, with or without the expression of one of the following transporters: hOAT1, hOAT3, hOCT1, hOCT2, hMATE1, or hMATE2K, as previously described.^1\nFor the substrate assessment, cells were incubated with 10 µM iohexol for 10 minutes and 30 minutes for each transporter. Inhibition assays were performed using specific standard substrates for each transporter: 10 µM para-aminohippuric acid (PAH) for hOAT1, 3 µM estrone-3-sulfate (E3S) for hOAT3, 50 µM metformin for hOCT1, 5 µM metformin for hOCT2, and 3 µM 1-methyl-4-phenylpyridinium (MPP+) for hMATE1 and hMATE2K. […]\nas §2"}, "[1]": {"test": "Clinical trial in healthy volunteers, noncompartmental analysis of plasma and urine", "type": "in vivo, human", "conditions": "for CL (plasma clearance, dose/AUC) / Ae0‐t (cumulative urinary excretion of unchanged iohexol) / Rmax (maximum observed excretion rate) / Vd / half-life / dose excreted / AUC: fasting, geomean (geoSD); for CL (plasma clearance, dose/AUC) / Vd / half-life / AUC: n=12, plasma; for Vd / half-life / dose excreted / AUC: human, iv; for Vd: read-out: Vz; for half-life: read-out: t1/2,λz (converted); for dose excreted: read-out: Recovery (percentage of dose recovered in urine)"}, "[2]": {"conditions": "Reference: 3235 mg i.v. bolus, urine, n=10"}, "[3]": {"conditions": "Test: 259 mg i.v. bolus, urine, n=10"}},
  "note": "Where two headings read alike, the source gives them in different places.",
  "data": [
    {"smiles": "CC(=O)N(CC(O)CO)c1c(I)c(C(=O)NCC(O)CO)c(I)c(C(=O)NCC(O)CO)c1I", "note": "(stereo not shown) [iohexol]", "values": [
      {"measurement": "Inhibitory effect (% reduction of specific activity)", "setting": "hMATE2K; 20 mM iohexol", "result": "< 30", "unit": "%"},
      {"measurement": "inhibition at 1000 µM", "setting": "hMATE2K; HEK293, 1 mM iohexol, read-out: Inhibitory effect (% reduction of specific activity)", "result": 14, "unit": "%"},
      {"measurement": "inhibition at 20000 µM", "setting": "hMATE2K; HEK293, 20 mM iohexol, read-out: Inhibitory effect (% reduction of specific activity)", "result": 26, "unit": "%"},
      {"measurement": "Differences in intracellular accumulation (expression on minus off)", "setting": "hOAT1; 10 minutes", "result": "-0.39 (-3.4 to 1.1) pmol/mg protein"},
      {"measurement": "Uptake ratio (transporter-expressing vs non-expressing cells)", "setting": "hOAT1; 10 minutes", "result": "0.91 (0.75 to 1.2)"},
      {"measurement": "Differences in intracellular accumulation (expression on minus off)", "setting": "hOAT1; 30 minutes", "result": "0.98 (-0.62 to 2.1) pmol/mg protein"},
      {"measurement": "Uptake ratio (transporter-expressing vs non-expressing cells)", "setting": "hOAT1; 30 minutes", "result": "1.1 (0.95 to 1.3)"},
      {"measurement": "T/R ratio (90% CIs) of urinary recovery", "setting": "[1]; 259 mg test vs 3235 mg reference, urine, n=10", "result": "1.06 (0.960–1.17)"},
      {"measurement": "CL (plasma clearance, dose/AUC)", "setting": "[1]; Reference: 3235 mg i.v. bolus", "result": "5.43 (1.19) L/h"},
      {"measurement": "Ae0‐t (cumulative urinary excretion of unchanged iohexol)", "setting": "[1]; [2]", "result": "3364 (1.14) mg"},
      {"measurement": "Rmax (maximum observed excretion rate)", "setting": "[1]; [2]", "result": "951 (1.12) mg/h"},
      {"measurement": "CL (plasma clearance, dose/AUC)", "setting": "[1]; Test: 259 mg i.v. bolus", "result": "5.46 (1.15) L/h"},
      {"measurement": "Ae0‐t (cumulative urinary excretion of unchanged iohexol)", "setting": "[1]; [3]", "result": "273 (1.09) mg"},
      {"measurement": "Rmax (maximum observed excretion rate)", "setting": "[1]; [3]", "result": "73.7 (1.27) mg/h"},
      {"measurement": "Vd", "setting": "[1]; Reference: 3235 mg i.v. bolus", "result": 32.4, "unit": "L"},
      {"measurement": "half-life", "setting": "[1]; Reference: 3235 mg i.v. bolus", "result": 4.14, "unit": "h"},
      {"measurement": "dose excreted", "setting": "[1]; [2]", "result": 103, "unit": "%"},
      {"measurement": "Vd", "setting": "[1]; Test: 259 mg i.v. bolus", "result": 26.1, "unit": "L"},
      {"measurement": "half-life", "setting": "[1]; Test: 259 mg i.v. bolus", "result": 3.32, "unit": "h"},
      {"measurement": "dose excreted", "setting": "[1]; [3]", "result": 106, "unit": "%"},
      {"measurement": "AUC", "setting": "[1]; 259 mg, Test: 259 mg i.v. bolus, read-out: AUC0‐t", "result": 46.5, "unit": "µg·h/mL"},
      {"measurement": "AUC", "setting": "[1]; 259 mg, Test: 259 mg i.v. bolus, read-out: AUC0‐∞", "result": 46.7, "unit": "µg·h/mL"},
      {"measurement": "AUC", "setting": "[1]; 3235 mg, Reference: 3235 mg i.v. bolus, read-out: AUC0‐t", "result": 598, "unit": "µg·h/mL"},
      {"measurement": "AUC", "setting": "[1]; 3235 mg, Reference: 3235 mg i.v. bolus, read-out: AUC0‐∞", "result": 600, "unit": "µg·h/mL"},
      {"measurement": "CVintra of CL", "setting": "[1]; intraindividual coefficient of variation, test vs reference", "result": 5.29, "unit": "%"}
    ]}
  ]
}
